Consider 2 molecules from PMC8866981 (Journal of Experimental Pharmacology, 2021).

One data set has as its system HIV-1IIIB. Format: cell-based, Human immunodeficiency virus type 1. Conditions: HIV-1IIIB infected MT-4 cells, 5 days, mean ± S.E.M (n=3).
In data set [1] the test system is Human T-lymphocytic MT-4 cells. The data set is described as follows: Cytotoxicity test, MTT colorimetric assay. The conditions noted are these: 5 days, percentage inhibition of cell growth, mean ± S.E.M (n=3). It counts as cell-based. A general note: Formazan colour is commonly taken as a measure of viable cells.

Turning to `Cc1cn([C@H]2C[C@H](N=[N+]=[N-])[C@@H](CO)O2)c(=O)[nH]c1=O` [AZT, zidovudine], the “EmaxAV (maximum antiviral effect %, CPE inhibition %)” value with HIV-1IIIB is listed as 83%.

Turning to `Cc1ccnc2c1NC(=O)c1cccnc1N2C1CC1` [NVP, nevirapine], the “EmaxC (maximum cytotoxic effect %)” value in data set [1] was over 35%.
